Measured values from US20200345645A1, “COMPOSITIONS COMPRISING INDIGO AND/OR AN INDIGO DERIVATIVE AND METHODS OF USE THEREOF” (Azora Therapeutics, Inc., priority 2019, published 2020).
Like-named read-outs stand apart in the source and are kept apart here.

How the values were obtained:
[1] = Release of indirubin into fasted-state simulated intestinal fluid (FaSSIF), HPLC; assay type: physicochemical; conditions: for Amount of indirubin in % Q (measured amount in solution divided by theoretical maximum) / Amount of indirubin in solution: FaSSIF pH 6.5, 37° C., 2 mg total indirubin in 500 mL; for Amount of indirubin in solution: mean of six replicates
Protocol: Additional solid amorphous dispersions of synthetic indirubin in six different hydrophilic carrier polymers-povidone, PVAc-PVCap-PEG, (SOLUPLUS®), copovidone, HPMC-AS, HPMCP and polyvinyl acetate phthalate (PVAP)—were prepared for a further study, as described in Example 15. In this study, dispersions with indirubin to polymer ratios of 1:9 or 0.5:9.5 were prepared, and the release of indirubin into fasted-state simulated intestinal fluid was determined. For comparison, Indigo naturalis and crystalline synthetic indirubin were also tested. The amount of indirubin in fasted-state simulated intestinal fluid was determined by HPLC for samples of the fluid taken. The mean amount of indirubin in solution at each time point was determined, and is shown in Table 1 in units of μg/L and in Table 2 as a percentage, referred to a % Q, of measured amount (mass) of indirubin in solution divided by the theoretical maximum amount (mass) of indirubin in solution.
Solid amorphous dispersions of synthetic indirubin in six different hydrophilic carrier polymers-povidone, PVAc-PVCap-PEG, (SOLUPLUS®), copovidone, HPMC-AS, HPMCP and polyvinyl acetate phthalate (PVAP) with indirubin to polymer ratios of 1:9 or 0.5 to 9.5 were prepared as described in Example 13. For comparison, Indigo naturalis and crystalline synthetic indirubin were also tested. All test articles were normalized to a total indirubin of 2 mg and added to 500 mL of fasted-state simulated intestinal fluid (FaSSIF) medium consisting of 3 mM taurocholate, 0.75 mM phospholipids, 148 mM sodium, 106 mM chloride, and 29 mM phosphate at pH 6.5. Six replicates of each test article were assessed under the following testing conditions: mixing with USP #2 paddles at 100 RPM at 37° C. with sampling of 5 mL at each time point and filtration through a 10 μm filter. […] The mean amount of indirubin in solution at each time point was determined, and is shown in Table 1 in units of μg/L and in Table 2 as a percentage, referred to a % Q, of measured amount (mass) of indirubin in solution divided by the theoretical maximum amount (mass) of indirubin in solution.

human AhR = human AhR (Homo sapiens, UniProt P35869); conditions: 24 hours incubation, reporter cells from human Huh7 cells expressing human AhR and ARNT
Chain of human AhR (P27540 whole entry partner, one chain of several): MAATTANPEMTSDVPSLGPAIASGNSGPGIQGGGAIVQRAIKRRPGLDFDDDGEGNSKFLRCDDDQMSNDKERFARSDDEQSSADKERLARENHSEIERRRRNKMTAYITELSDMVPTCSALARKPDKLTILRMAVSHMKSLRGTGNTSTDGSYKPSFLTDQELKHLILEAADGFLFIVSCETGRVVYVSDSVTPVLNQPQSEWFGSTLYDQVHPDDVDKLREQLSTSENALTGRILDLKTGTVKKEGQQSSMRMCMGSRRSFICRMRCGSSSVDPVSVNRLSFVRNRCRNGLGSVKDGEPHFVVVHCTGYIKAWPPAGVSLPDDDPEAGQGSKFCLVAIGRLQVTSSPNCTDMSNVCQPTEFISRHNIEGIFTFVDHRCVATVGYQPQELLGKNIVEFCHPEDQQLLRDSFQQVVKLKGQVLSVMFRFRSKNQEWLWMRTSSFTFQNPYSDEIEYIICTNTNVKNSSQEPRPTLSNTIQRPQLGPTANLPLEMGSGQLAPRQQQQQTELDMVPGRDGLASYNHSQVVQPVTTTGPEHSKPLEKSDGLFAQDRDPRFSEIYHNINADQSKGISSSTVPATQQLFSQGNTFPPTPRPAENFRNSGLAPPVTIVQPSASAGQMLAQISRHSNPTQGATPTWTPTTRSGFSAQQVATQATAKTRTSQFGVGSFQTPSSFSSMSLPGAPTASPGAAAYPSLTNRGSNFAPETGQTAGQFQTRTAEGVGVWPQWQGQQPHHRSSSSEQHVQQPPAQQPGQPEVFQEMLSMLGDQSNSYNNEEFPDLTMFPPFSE
Protocol: Each was incubated for 24 hours with reporter cells made from human Huh7 cells expressing human AhR and ARNT with luciferase expressed behind a genetic response element that responds to dimerized AhR/ARNT.
After incubation, the medium was aspirated and a detection reagent was added followed by a measurement of the relative luminescent units compared to a negative control of DMSO.

[2] = molecular target: T1, aryl hydrocarbon receptor (Homo sapiens, UniProt P35869); conditions: background statement, "It is known", cited from earlier work
T1 sequence (P35869 11-848): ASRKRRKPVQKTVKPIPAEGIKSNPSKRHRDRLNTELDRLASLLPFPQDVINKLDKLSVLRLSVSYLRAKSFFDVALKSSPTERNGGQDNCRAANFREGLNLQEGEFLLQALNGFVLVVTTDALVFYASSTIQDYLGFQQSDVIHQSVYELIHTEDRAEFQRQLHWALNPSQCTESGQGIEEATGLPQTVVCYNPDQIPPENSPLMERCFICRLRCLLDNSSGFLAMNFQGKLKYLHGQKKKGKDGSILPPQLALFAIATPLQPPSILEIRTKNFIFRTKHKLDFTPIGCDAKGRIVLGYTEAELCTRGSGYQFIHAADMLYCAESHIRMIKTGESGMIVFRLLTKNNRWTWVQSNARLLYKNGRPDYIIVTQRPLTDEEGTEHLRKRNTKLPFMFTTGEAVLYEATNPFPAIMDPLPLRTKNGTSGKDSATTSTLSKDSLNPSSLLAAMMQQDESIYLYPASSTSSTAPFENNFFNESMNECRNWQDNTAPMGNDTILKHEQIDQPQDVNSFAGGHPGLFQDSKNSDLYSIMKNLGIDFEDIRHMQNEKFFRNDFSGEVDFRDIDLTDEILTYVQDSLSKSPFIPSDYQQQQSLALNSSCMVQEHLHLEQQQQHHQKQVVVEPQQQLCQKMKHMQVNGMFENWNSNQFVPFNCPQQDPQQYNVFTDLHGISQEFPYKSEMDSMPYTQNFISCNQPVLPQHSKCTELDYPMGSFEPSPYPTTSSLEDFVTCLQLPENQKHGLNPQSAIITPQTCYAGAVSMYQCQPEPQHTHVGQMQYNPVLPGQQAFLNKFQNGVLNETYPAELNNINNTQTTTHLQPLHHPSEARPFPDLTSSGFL

O=C1Nc2ccccc2/C1=C1/Nc2ccccc2C1=O [Synthetic Indirubin, indirubin]
Amount of indirubin in % Q (measured amount in solution divided by theoretical maximum) ([1]; 5 min): 0.02 % Q
Amount of indirubin in solution ([1]; 5 min): 0.02 µg/L
Amount of indirubin in % Q (measured amount in solution divided by theoretical maximum) ([1]; 10 min): 0.03 % Q
Amount of indirubin in solution ([1]; 10 min): 0.03 µg/L
Amount of indirubin in % Q (measured amount in solution divided by theoretical maximum) ([1]; 20 min): 0.03 % Q
Amount of indirubin in solution ([1]; 20 min): 0.03 µg/L
Amount of indirubin in % Q (measured amount in solution divided by theoretical maximum) ([1]; 30 min): 0.03 % Q
Amount of indirubin in solution ([1]; 30 min): 0.03 µg/L
Amount of indirubin in % Q (measured amount in solution divided by theoretical maximum) ([1]; 60 min): 0.04 % Q
Amount of indirubin in solution ([1]; 60 min): 0.04 µg/L
Amount of indirubin in % Q (measured amount in solution divided by theoretical maximum) ([1]; 90 min): 0.05 % Q
Amount of indirubin in solution ([1]; 90 min): 0.05 µg/L
Amount of indirubin in % Q (measured amount in solution divided by theoretical maximum) ([1]; 120 min): 0.07 % Q
Amount of indirubin in solution ([1]; 120 min): 0.07 µg/L
Release of indirubin, of the total amount of indirubin ([1]; FaSSIF, summary of Tables 1 and 2): Less than 0.1%
Activation of the AhR receptor (fold activation relative to DMSO, FIG. 4) (human AhR): potent activator
Agonism of the aryl hydrocarbon receptor [2]: potent agonists

O=C1/C(=C2\Nc3ccccc3C2=O)Nc2ccccc21 [indigo]
Agonism of the aryl hydrocarbon receptor [2]: potent agonists
Agonism of the aryl hydrocarbon receptor ([2]; listed as Indigo): less potent than indirubin
